Experimental data published in the CheMixHub viscosity set.
± gives the uncertainty stated by the source.

Assay: xn = mol fraction of the nth substance listed

CS(C)=O + OCCO
viscosity [mPa·s]
Conditions | 308.15 K | 313.15 K | 318.15 K | 323.15 K
100 kPa, x1 = 0.105 | – | 7.61 ± 0.31 | 6.51 ± 0.26 | 5.63 ± 0.23
100 kPa, x1 = 0.1987 | – | 6.39 ± 0.26 | 5.54 ± 0.23 | 4.82 ± 0.2
100 kPa, x1 = 0.2971 | – | 5.32 ± 0.22 | 4.51 ± 0.18 | 4.09 ± 0.17
100 kPa, x1 = 0.3911 | – | 4.45 ± 0.18 | 3.86 ± 0.16 | 3.48 ± 0.14
100 kPa, x1 = 0.5099 | – | 3.56 ± 0.14 | 3.02 ± 0.12 | 2.84 ± 0.12
100 kPa, x1 = 0.5932 | – | 3.07 ± 0.12 | 2.72 ± 0.11 | 2.48 ± 0.1
100 kPa, x1 = 0.702 | – | 2.61 ± 0.11 | 2.45 ± 0.1 | 2.13 ± 0.09
100 kPa, x1 = 0.7931 | – | 2.32 ± 0.09 | 2.24 ± 0.09 | 1.91 ± 0.08
100 kPa, x1 = 0.9003 | – | 2 ± 0.08 | 1.92 ± 0.08 | 1.67 ± 0.07
101 kPa, x2 = 0.0621 | – | 1.8 ± 0.07 | 1.63 ± 0.07 | 1.5 ± 0.06
101 kPa, x2 = 0.1227 | – | 2.24 ± 0.09 | 2.02 ± 0.08 | 1.84 ± 0.08
101 kPa, x2 = 0.1819 | – | 2.8 ± 0.12 | 2.51 ± 0.1 | 2.27 ± 0.09
101 kPa, x2 = 0.2394 | – | 3.49 ± 0.14 | 3.06 ± 0.13 | 2.73 ± 0.11
101 kPa, x2 = 0.2958 | – | 4.19 ± 0.17 | 3.56 ± 0.15 | 3.14 ± 0.13
101 kPa, x2 = 0.3504 | – | 4.83 ± 0.2 | 4.12 ± 0.17 | –
101 kPa, x2 = 0.404 | – | 5.48 ± 0.23 | 4.63 ± 0.19 | –
101 kPa, x2 = 0.4562 | 7.13 ± 0.29 | 6.01 ± 0.25 | 5.11 ± 0.21 | –
101 kPa, x2 = 0.5076 | 7.73 ± 0.32 | 6.52 ± 0.27 | 5.52 ± 0.23 | –
101 kPa, x2 = 0.5568 | 8.27 ± 0.34 | 6.95 ± 0.28 | 5.88 ± 0.24 | –
101 kPa, x2 = 0.6061 | 8.72 ± 0.36 | 7.33 ± 0.3 | 6.2 ± 0.25 | –
101 kPa, x2 = 0.6537 | 9.12 ± 0.37 | 7.65 ± 0.31 | 6.49 ± 0.27 | –
101 kPa, x2 = 0.7004 | 9.44 ± 0.38 | 7.94 ± 0.32 | 6.72 ± 0.27 | –
101 kPa, x2 = 0.7461 | 9.75 ± 0.4 | 8.22 ± 0.33 | 6.93 ± 0.28 | –
101 kPa, x2 = 0.7906 | 9.99 ± 0.41 | 8.48 ± 0.35 | 7.15 ± 0.29 | –
101 kPa, x2 = 0.8342 | 10.2 ± 0.4 | 8.71 ± 0.35 | 7.33 ± 0.3 | –
101 kPa, x2 = 0.8769 | 10.5 ± 0.4 | 8.95 ± 0.36 | 7.53 ± 0.31 | –
101 kPa, x2 = 0.9189 | 10.9 ± 0.4 | 9.2 ± 0.37 | 7.71 ± 0.31 | –
101 kPa, x2 = 0.9599 | 11.1 ± 0.5 | 9.41 ± 0.38 | 7.9 ± 0.32 | –
